Some test systems named below: SK-MEL-2; CCRF-CEM; OVCAR-8; HOP-62; NCI-H226; SK-OV-3; HCT-15; Hs-578T; MDA-MB-435; SK-MEL-5; IGROV-1; LOX IMVI; COLO 205; OVCAR-5; UO-31; SW-620; MDA-N; K562; M14; HOP-92.
Common to all, as to test: NCI-60 cell line screen, 48 h

Each structure is given as a SMILES string.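 Five concentrations, 48 hours, 96-well plates. The concentration for 50% growth inhibition is given as GI50.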 Activity calls are given as the source filed them. Cut-off read from the data, not from the text of the source: active = GI50 up to about 1.1 µM and inactive = higher. A value given as a limit tells only on which side of the number the result lay.

As to `O=C(O)C1CC(O)CN1` (stereo not given), the GI50 with SK-MEL-2, in the experiment on CCRF-CEM, with OVCAR-8, with HOP-62, in the experiment with NCI-H226 and with SK-OV-3 was > 100 µM (inactive) each time. Moreover, the GI50 is above 100 µM in the experiment with HCT-15; > 100 µM (inactive) in the experiment with Hs-578T; > 100 µM (inactive) in the experiment with MDA-MB-435; > 100 µM (inactive) in the experiment on SK-MEL-5; > 100 µM (inactive) in the experiment with IGROV-1; > 100 µM (inactive) in the experiment with LOX IMVI. The GI50 in the experiment on COLO 205, with OVCAR-5, with UO-31, in the experiment with SW-620, with MDA-N and with K562 was > 100 µM (inactive) each time. The GI50 in the experiment with M14 and in the experiment with HOP-92 was > 100 µM (inactive) throughout.
With `O=c1oc2cc(/N=C/c3ccc4c(c3)OCO4)ccc2c2ccccc12`, the GI50 is 92.9 µM (inactive) with SK-MEL-2; 50.4 µM (inactive) in the experiment with CCRF-CEM; 42.5 µM (inactive) in the experiment on OVCAR-8; 36 µM (inactive) with HOP-62; > 100 µM (inactive) in the experiment with NCI-H226; 34.1 µM (inactive) with SK-OV-3. Besides, the GI50 was above 100 µM with HCT-15; > 100 µM (inactive) in the experiment on Hs-578T; > 100 µM (inactive) with MDA-MB-435; 76.6 µM (inactive) in the experiment with SK-MEL-5; 78.3 µM (inactive) in the experiment on IGROV-1; 79.8 µM (inactive) in the experiment with LOX IMVI. Moreover, the GI50 was 56.6 µM (inactive) in the experiment on COLO 205; > 100 µM (inactive) in the experiment on OVCAR-5; 70 µM (inactive) in the experiment on UO-31; 97.9 µM (inactive) in the experiment on SW-620; > 100 µM (inactive) in the experiment on MDA-N; > 100 µM (inactive) in the experiment on K562. Moreover, the GI50 with M14 and in the experiment on HOP-92 was > 100 µM (inactive) in each case.
For the compound `Cc1ccc(/C=C2\NC(=S)N(CN3CCCCC3)C2=O)cc1`, the GI50 in the experiment with SK-MEL-2 was > 100 µM (inactive); with CCRF-CEM, 12.4 µM (inactive); in the experiment on OVCAR-8 it was 32.5 µM (inactive); in the experiment with HOP-62, > 100 µM (inactive); with NCI-H226 it was 55.7 µM (inactive); in the experiment with SK-OV-3, > 100 µM (inactive). Also, the GI50 in the experiment with HCT-15 is 36.1 µM; in the experiment on Hs-578T it was 41.4 µM (inactive); with MDA-MB-435, 46.5 µM (inactive); in the experiment with SK-MEL-5, 33.3 µM (inactive); in the experiment on IGROV-1, > 100 µM (inactive); in the experiment on LOX IMVI, 34.4 µM (inactive). The GI50 was 17 µM (inactive) in the experiment on COLO 205; > 100 µM (inactive) in the experiment on OVCAR-5; 63.1 µM (inactive) in the experiment with UO-31; 28.9 µM (inactive) in the experiment on SW-620; 65.2 µM (inactive) in the experiment with MDA-N; 43 µM (inactive) in the experiment with K562. Besides, the GI50 is 55.1 µM (inactive) in the experiment with M14 and 0.416 µM (active) in the experiment with HOP-92.
Turning to `CC(C)(C)c1cc(C(=O)C2Cc3ccccc3C(=O)O2)cc(C(C)(C)C)c1O` (stereo not given), the GI50 in the experiment on SK-MEL-2 is 10.9 µM (inactive); in the experiment with CCRF-CEM it was 5.01 µM (inactive); in the experiment on OVCAR-8, 10.4 µM (inactive); in the experiment on HOP-62 it was 13.7 µM (inactive); in the experiment with NCI-H226 it was 17.9 µM (inactive); with SK-OV-3, 24 µM (inactive). The GI50 in the experiment with HCT-15 was 12.4 µM; in the experiment on Hs-578T, 29.3 µM (inactive); in the experiment with MDA-MB-435, 10.7 µM (inactive); in the experiment with SK-MEL-5, 12.6 µM (inactive); in the experiment on IGROV-1, 14.5 µM (inactive); in the experiment on LOX IMVI it was 11.9 µM (inactive). Besides, the GI50 with COLO 205 was 17.6 µM (inactive); in the experiment with OVCAR-5, 16.6 µM (inactive); in the experiment with UO-31 it was 11.2 µM (inactive); in the experiment with SW-620, 10.3 µM (inactive); in the experiment on MDA-N it was 8.61 µM (inactive); with K562, 11.4 µM (inactive). Further, the GI50 is 12.6 µM (inactive) in the experiment on M14 and 18.2 µM (inactive) with HOP-92.
For the compound `CCCCC(=C=C1CCCCC1O)C1CCCN1C(=O)OC(C)(C)C` (stereo not given), the GI50 is 16.2 µM (inactive) in the experiment on SK-MEL-2; 17.6 µM (inactive) in the experiment on CCRF-CEM; 18.7 µM (inactive) in the experiment on OVCAR-8; 17 µM (inactive) in the experiment with HOP-62; 17.4 µM (inactive) in the experiment with NCI-H226; 16.5 µM (inactive) in the experiment with SK-OV-3. The GI50 in the experiment on HCT-15 is 16.4 µM; in the experiment with Hs-578T, 19.3 µM (inactive); with MDA-MB-435 it was 16.9 µM (inactive); in the experiment with SK-MEL-5 it was 16.6 µM (inactive); in the experiment with IGROV-1, 16.7 µM (inactive); in the experiment with LOX IMVI, 17.7 µM (inactive). Also, the GI50 in the experiment on COLO 205 is 17.3 µM (inactive); in the experiment with OVCAR-5, 16 µM (inactive); with UO-31, 21.3 µM (inactive); in the experiment with SW-620 it was 18.3 µM (inactive); in the experiment on MDA-N it was 16.4 µM (inactive); in the experiment on K562 it was 17.5 µM (inactive). Further, the values for the GI50 with M14 and with HOP-92 were 16.9 µM (inactive) and 12.8 µM (inactive), respectively.
For the compound `COC(=O)C1CCC(=O)N1C(c1ccc(OC)cc1)c1ccc(OC)cc1` (stereo not given), the GI50 in the experiment with SK-MEL-2, in the experiment on CCRF-CEM, in the experiment on OVCAR-8, in the experiment with HOP-62, in the experiment with NCI-H226 and in the experiment with SK-OV-3 was > 100 µM (inactive) in each case. Further, the GI50 with HCT-15 was above 100 µM; in the experiment on Hs-578T, > 100 µM (inactive); in the experiment with MDA-MB-435, > 100 µM (inactive); with SK-MEL-5, > 100 µM (inactive); in the experiment with IGROV-1, > 100 µM (inactive); in the experiment on LOX IMVI it was > 100 µM (inactive). For the same compound, the GI50 in the experiment with COLO 205, in the experiment on OVCAR-5, in the experiment with UO-31, in the experiment with SW-620, with MDA-N and in the experiment on K562 was > 100 µM (inactive) each time. Moreover, the GI50 in the experiment with M14 and with HOP-92 was > 100 µM (inactive) throughout.
`CC(=O)NC1=CC(=O)c2cc(C)cc(O)c2C1=O`: the GI50 with SK-MEL-2 was 4.72 µM (inactive); with CCRF-CEM it was 4.47 µM (inactive); in the experiment on OVCAR-8, 2.44 µM (inactive); in the experiment on HOP-62 it was 17.9 µM (inactive); in the experiment on NCI-H226, 19.8 µM (inactive); in the experiment on SK-OV-3, > 63.2 µM (inactive). Also, the GI50 was 2.88 µM with HCT-15; 31.8 µM (inactive) in the experiment on Hs-578T; 0.721 µM (active) in the experiment with MDA-MB-435; 1.14 µM (inactive) with SK-MEL-5; 11.8 µM (inactive) in the experiment on IGROV-1; 1.53 µM (inactive) in the experiment with LOX IMVI. In addition, the GI50 in the experiment on COLO 205 was 5.5 µM (inactive); in the experiment with OVCAR-5, 12.5 µM (inactive); in the experiment with UO-31, 7.59 µM (inactive); in the experiment with SW-620, 3.41 µM (inactive); in the experiment on MDA-N, 1.53 µM (inactive); in the experiment with K562 it was 3.74 µM (inactive). The GI50 in the experiment on M14 is 1.75 µM (inactive); in the experiment on HOP-92, 8.73 µM (inactive).
For the compound `Cc1cc2c(c3oc(C(O)(CO)C4CO4)cc(=O)c13)C(=O)c1c(O)cccc1C2=O` (stereo not given), the GI50 with SK-MEL-2 was 0.00151 µM (active); in the experiment on CCRF-CEM, 4.14e-05 µM (active); in the experiment on OVCAR-8, 0.000569 µM (active); with HOP-62, 0.00147 µM (active); in the experiment with NCI-H226, 0.00237 µM (active); in the experiment with SK-OV-3 it was 0.00188 µM (active). The GI50 in the experiment with HCT-15 was 0.000887 µM; in the experiment with Hs-578T it was 0.00436 µM (active); with MDA-MB-435, 0.00121 µM (active); in the experiment with SK-MEL-5, 0.002 µM (active); in the experiment on IGROV-1 it was 0.000266 µM (active); in the experiment with LOX IMVI, 0.000356 µM (active). The GI50 with COLO 205 is 0.00163 µM (active); in the experiment on OVCAR-5, 0.00229 µM (active); in the experiment on UO-31, 0.000154 µM (active); in the experiment with SW-620, 0.000377 µM (active); with MDA-N, 0.00131 µM (active); in the experiment on K562, 0.000982 µM (active). In addition, the GI50 was 0.00168 µM (active) with M14 and 0.00013 µM (active) in the experiment on HOP-92.
For the compound `OC(O)(C(F)(F)F)C(F)(F)F`, the GI50 in the experiment on SK-MEL-2, with CCRF-CEM, in the experiment on OVCAR-8, in the experiment with HOP-62, in the experiment on NCI-H226 and in the experiment with SK-OV-3 was > 100 µM (inactive) in each case. Further, the GI50 was above 100 µM in the experiment with HCT-15; > 100 µM (inactive) with Hs-578T; > 100 µM (inactive) in the experiment with MDA-MB-435; > 100 µM (inactive) in the experiment on SK-MEL-5; > 100 µM (inactive) with IGROV-1; > 100 µM (inactive) in the experiment on LOX IMVI. Besides, the GI50 in the experiment on COLO 205, with OVCAR-5, with UO-31, in the experiment on SW-620, in the experiment on MDA-N and with K562 was > 100 µM (inactive) in each case. Also, the GI50 with M14 and in the experiment on HOP-92 was > 100 µM (inactive) throughout.
`C[C@H]1[C@H](C)CC[C@]2(C(=O)OC3OC(CO)C(O)C(O)C3O)CC[C@]3(C)C(=CC[C@@H]4[C@@]5(C)C[C@H]6OC(=O)c7cc(O)c(O)c(O)c7-c7c(cc(O)c(O)c7O)C(=O)O[C@@H]6C(CO)(CO)[C@@H]5CC[C@]43C)[C@H]12` (stereo not given in full): the GI50 is > 100 µM (inactive) with SK-MEL-2; 24.5 µM (inactive) in the experiment with CCRF-CEM; 55.8 µM (inactive) in the experiment with OVCAR-8; > 100 µM (inactive) in the experiment on HOP-62; > 91.8 µM (inactive) with NCI-H226; > 95.5 µM (inactive) with SK-OV-3. In addition, the GI50 was 24.8 µM in the experiment with HCT-15; > 100 µM (inactive) in the experiment on Hs-578T; 18.7 µM (inactive) in the experiment on MDA-MB-435; 72.9 µM (inactive) in the experiment with SK-MEL-5; > 100 µM (inactive) with IGROV-1; 16.4 µM (inactive) in the experiment with LOX IMVI. Also, the GI50 in the experiment with COLO 205 is > 100 µM (inactive); in the experiment on OVCAR-5, > 95.9 µM (inactive); in the experiment with UO-31 it was 58.1 µM (inactive); in the experiment with SW-620, 37.6 µM (inactive); in the experiment on MDA-N it was 25.5 µM (inactive); in the experiment on K562, 49.3 µM (inactive). Besides, the GI50 with M14 and in the experiment on HOP-92 was > 100 µM (inactive) each time.
